Results: article PMC9186373, “Design, synthesis, and biological evaluation of novel carbazole derivatives as potent DNMT1 inhibitors with reasonable PK properties” (Journal of Enzyme Inhibition and Medicinal Chemistry, 2022)
Where two headings read alike, the source gives them in different places.

Tests used:
[1] = system: HCT116 (human colon cancer cells); assay: MTT assay, HCT116; assay type: cell-based
Description: The human lung cancer cells (A549) and human colon cancer cells (HCT116) were cultured in an RPMI-1640 medium containing 10% FBS, 100 U/mL streptomycin, and 100 U/mL penicillin at 37 °C in a humidified atmosphere with 5% CO2. All compounds were dissolved in DMSO and stock solutions were stored at −20 °C. Reagents were freshly diluted to the marked concentrations with a culture medium before use. DMSO concentration in experimental conditions never exceeded 0.1% (v/v). All cell lines were provided by the cell laboratory, School of pharmaceutical sciences, Guangzhou Medical University.
Cell viability was detected using an MTT assay kit. Cells were seeded into 96-well plates at a density of ∼1.0 × 10^4/well. 24 h later, sextuplicate wells were treated with media and new compounds at a fixed concentration (50 µM). After 24, 48, and 72 h, the drug-containing medium was replaced by a 100 µL fresh medium with 5 mg/mL MTT solution. After 4 h of incubation, the medium with MTT was removed, and 100 µL of DMSO was added to each well. The plates were gently agitated until the purple formazan crystals were dissolved, and the OD490 was determined using a […] (Olympus BX53, Japan). The data were calculated and plotted as the percent viability compared to the control.

[2] = PK study in SD rats; assay type: in vivo; details: rat, plasma, SD male rats; for AUC(0-t) / Tmax / half-life: mean ± SD (n = 3); for bioavailability: p.o. 10 mg/kg vs i.v. 2 mg/kg, F = (AUC p.o. × Dose i.v.)/(AUC i.v. × Dose p.o.) × 100%
Description: In vivo pharmacokinetic properties of WK-22, WK-23, WK-27, and DC_517 were performed by Medicilon Company, Shanghai, China. SPF-grade SD male rats (8 groups, n = 3 rats per group) with a body weight of 230–260 g were purchased from Shanghai SIPPR-BK LAB Animal Ltd., Shanghai, China, and used for the pharmacokinetic analysis of the tested compounds. All animals were deprived of food overnight after the cannulation surgery. Subsequently, the tested compounds WK-23 and DC_517 were dissolved/suspended in 5% DMSO, 10% Solutol, and 85% water, and the tested compounds WK-22 and WK-27 were dissolved/suspended in 5% DMSO, 40% PEG400, and 55% saline for intravenous administration (i.v.) and oral administration (p.o.), respectively. A final dosage of 2.0 and 10.0 mg/kg rat of the formulated compounds was administered for i.v. and p.o. purposes, respectively, and the blood samples were taken at various time points during a 24 h period. At different time points, blood samples were collected from the femoral vein. The plasma samples were obtained after centrifugation (6800 g, 6 min, 2–8 °C) and stored at −80 °C until the assay. The AUC (area under concentration-time curve) was calculated through the trapezoidal rule with extrapolation to time infinity. The concentration of the compounds in the blood was analysed by LC-MS/MS (Shimadzu liquid chromatographic system and SCIEX Triple Quad 5500+ mass spectrometer, Applied Biosystems, Ontario, Canada). The Tmax, T1/2, and Cmax value was obtained through visual inspection of the plasma concentration-time curve. The Vss value was generated from DAS 3.2.8 software. The F value of WK-23 was calculated with the formula: F = (AUC p.o. × Dose i.v.)/(AUC i.v. × Dose p.o.) × 100%.

[3] = molecular target: DNMT1 (Homo sapiens, UniProt P26358); assay: H3-labelled radioactive methylation assay; assay type: biochemical; details: H3-labeled radioactive methylation assay; 40 nM DNMT1
Summary of the method: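 DNMT1 (40 nM) was preincubated with a compound range for 15 min at room temperature, then given 0.1 µM ^3H-SAM and 0.25 µg/mL poly(dI-dC)·poly(dI-dC) in 50 mM Tris-HCl pH 8.0, 1 mM DTT, 5% glycerol, 100 µg/mL BSA. After 60 min at 37 °C, filter-bound radioactivity was counted by scintillation. IC50 was taken from a non-linear dose-response fit.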

[4] = HCT-116, 24 h, read-out: Inh % at 50 μM, HCT116, 24 h
[5] = HCT-116, 48 h, read-out: Inh % at 50 μM, HCT116, 48 h
[6] = HCT-116, 72 h, read-out: Inh % at 50 μM, HCT116, 72 h

Sequence of DNMT1 (P26358 whole entry): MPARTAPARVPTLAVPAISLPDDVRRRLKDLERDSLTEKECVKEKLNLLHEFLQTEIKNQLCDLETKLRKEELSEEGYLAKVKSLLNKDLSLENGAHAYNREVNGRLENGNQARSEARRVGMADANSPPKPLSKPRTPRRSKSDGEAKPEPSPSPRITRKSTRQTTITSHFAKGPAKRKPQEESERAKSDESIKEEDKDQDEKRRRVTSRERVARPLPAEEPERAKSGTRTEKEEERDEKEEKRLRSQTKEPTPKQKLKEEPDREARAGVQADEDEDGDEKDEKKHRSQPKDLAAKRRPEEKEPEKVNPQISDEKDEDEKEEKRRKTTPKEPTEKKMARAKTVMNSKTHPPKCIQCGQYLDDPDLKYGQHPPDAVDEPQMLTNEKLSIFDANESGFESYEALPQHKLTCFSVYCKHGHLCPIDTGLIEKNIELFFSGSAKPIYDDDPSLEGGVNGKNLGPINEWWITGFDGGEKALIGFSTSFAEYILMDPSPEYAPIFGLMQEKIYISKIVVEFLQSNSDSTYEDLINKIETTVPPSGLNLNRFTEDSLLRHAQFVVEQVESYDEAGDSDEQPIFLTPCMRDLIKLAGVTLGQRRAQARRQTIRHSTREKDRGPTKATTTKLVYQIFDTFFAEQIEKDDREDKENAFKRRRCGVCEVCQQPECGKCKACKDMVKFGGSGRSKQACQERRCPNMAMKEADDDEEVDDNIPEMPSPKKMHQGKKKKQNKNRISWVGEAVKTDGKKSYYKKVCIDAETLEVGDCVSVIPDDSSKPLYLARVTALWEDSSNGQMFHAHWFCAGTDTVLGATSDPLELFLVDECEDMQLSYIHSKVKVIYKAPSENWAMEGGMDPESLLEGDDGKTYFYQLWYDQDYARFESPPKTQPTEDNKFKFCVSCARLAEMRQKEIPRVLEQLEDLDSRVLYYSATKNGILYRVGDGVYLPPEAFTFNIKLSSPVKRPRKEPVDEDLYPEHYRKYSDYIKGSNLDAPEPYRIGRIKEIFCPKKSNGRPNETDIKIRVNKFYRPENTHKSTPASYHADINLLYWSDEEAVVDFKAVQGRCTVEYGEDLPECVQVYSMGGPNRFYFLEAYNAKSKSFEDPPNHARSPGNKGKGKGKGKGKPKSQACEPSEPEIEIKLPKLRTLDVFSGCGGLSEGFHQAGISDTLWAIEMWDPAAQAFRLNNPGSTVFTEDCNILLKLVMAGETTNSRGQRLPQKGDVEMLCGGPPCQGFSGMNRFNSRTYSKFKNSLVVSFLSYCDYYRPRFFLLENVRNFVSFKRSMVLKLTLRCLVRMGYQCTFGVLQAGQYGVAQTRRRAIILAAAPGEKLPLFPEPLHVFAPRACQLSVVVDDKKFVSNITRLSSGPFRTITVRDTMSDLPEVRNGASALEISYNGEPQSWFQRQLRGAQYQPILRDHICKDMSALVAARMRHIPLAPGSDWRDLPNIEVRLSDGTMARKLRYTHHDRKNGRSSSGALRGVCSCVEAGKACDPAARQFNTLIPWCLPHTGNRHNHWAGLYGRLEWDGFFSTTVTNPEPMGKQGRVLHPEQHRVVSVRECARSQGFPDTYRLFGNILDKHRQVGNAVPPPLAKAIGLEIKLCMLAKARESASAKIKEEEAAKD

Row | Structure (SMILES) | inhibition at 50 µM [1, 4] | inhibition at 50 µM [1, 5] | inhibition at 50 µM [1, 6] | AUC(0-t) ([2]; iv, i.v. (2 mg/kg)) | Tmax ([2]; iv, i.v. (2 mg/kg)) | half-life ([2]; iv, i.v. (2 mg/kg)) | bioavailability ([2]; oral) | bioavailability ([2]; po) | AUC(0-t) ([2]; po, p.o. (10 mg/kg)) | Tmax ([2]; po, p.o. (10 mg/kg)) | half-life ([2]; po, p.o. (10 mg/kg)) | melting point | IC50 [3]
1 | CC(C)NCC(O)COC(Cn1c2ccc(F)cc2c2cc(F)ccc21)Cn1c2ccc(F)cc2c2cc(F)ccc21 (stereo not drawn) [WK-22, 1-((1,3-Bis(3,6-difluoro-9H-carbazol-9-yl)propan-2-yl)oxy)-3-(isopropylamino)propan-2-ol] | 77.6% | 91.8% | 97.4% | 867 ± 15.9 ng·h/mL | 0.1 h | 12.2 ± 0.8 h | 27% | 27 ± 4.6% | 1170 ± 197 ng·h/mL | 7.3 ± 1.2 h | 8.8 ± 1.3 h | 89 to 91 °C | 4.9 µM
2 | CC(C)NCC(O)COC(Cn1c2ccccc2c2cc(F)ccc21)Cn1c2ccccc2c2cc(F)ccc21 (stereo not drawn) [WK-23, 1-((1,3-bis(3-fluoro-9H-carbazol-9-yl)propan-2-yl)oxy)-3-(isopropylamino)propan-2-ol] | 87.7% | 92.9% | 97.5% | 1060 ± 121 ng·h/mL | 0.08 h | 7.9 ± 1 h | – | 37.1 ± 1.7% | 1970 ± 91.1 ng·h/mL | 6.7 ± 1.2 h | 6.5 ± 0.3 h | – | 5 µM
